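Interpolation was linear, between the two tested concentrations surrounding the appropriate level; five concentrations were tested over 48 hours in 96-well plates. The concentration for 50% growth inhibition is given as GI50.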 Activity calls are given as the source filed them. Cut-off read from the data, not from the text of the source: active = GI50 up to about 1.1 µM and inactive = higher.
Experiments:
Assay in all cases: inhibition of tumour cell growth, NCI panel, 48 h
CCRF-CEM = system: CCRF-CEM
COLO 205 = system: COLO 205
DU-145 = system: DU-145
EKVX = system: EKVX
HL-60 = system: HL-60
HOP-62 = system: HOP-62
IGROV-1 = system: IGROV-1
KM12 = system: KM12
LOX IMVI = system: LOX IMVI
M14 = system: M14
NCI-H226 = system: NCI-H226
OVCAR-3 = system: OVCAR-3
SK-MEL-5 = system: SK-MEL-5
SK-OV-3 = system: SK-OV-3
T47D = system: T47D
UACC-62 = system: UACC-62
UO-31 = system: UO-31
SK-MEL-28 = system: SK-MEL-28

| SMILES | GI50 (CCRF-CEM) | GI50 (COLO 205) | GI50 (DU-145) | GI50 (EKVX) | GI50 (HL-60) | GI50 (HOP-62) | GI50 (IGROV-1) | GI50 (KM12) | GI50 (LOX IMVI) | GI50 (M14) | GI50 (NCI-H226) | GI50 (OVCAR-3) | GI50 (SK-MEL-5) | GI50 (SK-OV-3) | GI50 (T47D) | GI50 (UACC-62) | GI50 (UO-31) | GI50 (SK-MEL-28) |
| --- | --- | --- | --- | --- | --- | --- | --- | --- | --- | --- | --- | --- | --- | --- | --- | --- | --- | --- |
| CCCCc1ccc(Nc2nc(Cl)c3c(ncn3COCCOC(C)=O)n2)cc1 | 28.2 µM (inactive) | 22.3 µM (inactive) | 16.6 µM (inactive) | 19.8 µM (inactive) | 21.6 µM (inactive) | 16.7 µM (inactive) | 19.2 µM (inactive) | 18 µM (inactive) | 17.5 µM (inactive) | 17.9 µM (inactive) | 17.4 µM (inactive) | 21.2 µM (inactive) | 18.7 µM (inactive) | 17.1 µM (inactive) | 17.8 µM (inactive) | 16.6 µM (inactive) | 18.7 µM (inactive) | – |
| O=c1oc2cc(O)ccc2c(O)c1C(c1ccccc1F)c1c(O)c2ccc(O)cc2oc1=O | – | > 100 µM (inactive) | > 100 µM (inactive) | > 100 µM (inactive) | 17.9 µM (inactive) | > 100 µM (inactive) | > 100 µM (inactive) | 78.3 µM (inactive) | 46 µM (inactive) | > 100 µM (inactive) | > 100 µM (inactive) | > 100 µM (inactive) | 28.4 µM (inactive) | > 100 µM (inactive) | > 100 µM (inactive) | 36.6 µM (inactive) | > 100 µM (inactive) | 52 µM (inactive) |
| CS[C@]12[C@@H]3C(=O)N(C)C(=O)[C@@H]3[C@](C)(C(=O)N1C)C(=O)N2c1ccccc1 | > 100 µM (inactive) | > 100 µM (inactive) | > 100 µM (inactive) | > 100 µM (inactive) | > 100 µM (inactive) | > 100 µM (inactive) | > 100 µM (inactive) | > 100 µM (inactive) | > 100 µM (inactive) | > 100 µM (inactive) | > 100 µM (inactive) | > 100 µM (inactive) | > 100 µM (inactive) | > 100 µM (inactive) | > 100 µM (inactive) | > 100 µM (inactive) | > 100 µM (inactive) | > 100 µM (inactive) |
| CCOC(=O)C#Cc1ccccc1 | 2.94 µM (inactive) | 11.2 µM (inactive) | 25.8 µM (inactive) | 2.28 µM (inactive) | 14.4 µM (inactive) | 17.3 µM (inactive) | – | 12.2 µM (inactive) | 2.96 µM (inactive) | 5.14 µM (inactive) | 20 µM (inactive) | 19.1 µM (inactive) | 3.72 µM (inactive) | 26.6 µM (inactive) | 19.4 µM (inactive) | 6.75 µM (inactive) | 0.741 µM (active) | 16.8 µM (inactive) |
| CCOC(CCNCC(OCC)OCC)OCC | > 10 µM (inactive) | > 10 µM (inactive) | > 10 µM (inactive) | > 10 µM (inactive) | > 10 µM (inactive) | > 10 µM (inactive) | > 10 µM (inactive) | > 10 µM (inactive) | > 10 µM (inactive) | > 10 µM (inactive) | > 10 µM (inactive) | > 10 µM (inactive) | > 10 µM (inactive) | > 10 µM (inactive) | > 10 µM (inactive) | > 10 µM (inactive) | – | > 10 µM (inactive) |
| O=C1C[C@@]23CCC4(CC2=CCC[C@H]3O1)OCCO4 | – | > 100 µM (inactive) | > 100 µM (inactive) | > 100 µM (inactive) | > 100 µM (inactive) | > 100 µM (inactive) | > 100 µM (inactive) | > 100 µM (inactive) | > 100 µM (inactive) | > 100 µM (inactive) | > 100 µM (inactive) | > 100 µM (inactive) | > 100 µM (inactive) | > 100 µM (inactive) | > 100 µM (inactive) | > 100 µM (inactive) | – | > 100 µM (inactive) |
| C=C1C(=O)OC2CC3(C)CCCC(C)C3=CC12 (centres undefined) | 1.21 µM (inactive) | 1.3 µM (inactive) | 3.67 µM (inactive) | 5.3 µM (inactive) | 0.469 µM (active) | – | 10.1 µM (inactive) | 12.6 µM (inactive) | 1.57 µM (inactive) | 3.56 µM (inactive) | 13.2 µM (inactive) | – | 1.55 µM (inactive) | 20.7 µM (inactive) | 2.88 µM (inactive) | 4.08 µM (inactive) | 3.18 µM (inactive) | 2.65 µM (inactive) |
| CC(=O)N1c2ccccc2C23CCN4CC5=CCOC(O)C(C5CC42)C13 (centres undefined) | > 100 µM (inactive) | > 100 µM (inactive) | > 100 µM (inactive) | > 100 µM (inactive) | > 100 µM (inactive) | – | > 100 µM (inactive) | > 100 µM (inactive) | > 100 µM (inactive) | > 100 µM (inactive) | > 100 µM (inactive) | > 100 µM (inactive) | > 100 µM (inactive) | > 100 µM (inactive) | > 100 µM (inactive) | > 100 µM (inactive) | > 100 µM (inactive) | > 100 µM (inactive) |
| COc1ccc(/C=C2\N=C3NC(=O)C(N4CCCCC4)=C(N)N3C2=O)cc1 | > 100 µM (inactive) | > 100 µM (inactive) | > 100 µM (inactive) | > 100 µM (inactive) | 25.9 µM (inactive) | – | > 100 µM (inactive) | > 100 µM (inactive) | > 100 µM (inactive) | > 100 µM (inactive) | > 100 µM (inactive) | – | > 100 µM (inactive) | > 100 µM (inactive) | > 100 µM (inactive) | – | > 100 µM (inactive) | > 100 µM (inactive) |
| COc1cc(OC)c(OC)cc1/C=C/c1nc2ccccc2s1 | > 100 µM (inactive) | > 100 µM (inactive) | > 100 µM (inactive) | 69.7 µM (inactive) | 5.52 µM (inactive) | 29.1 µM (inactive) | > 100 µM (inactive) | > 100 µM (inactive) | > 100 µM (inactive) | 17.6 µM (inactive) | > 100 µM (inactive) | > 100 µM (inactive) | > 100 µM (inactive) | > 100 µM (inactive) | 8.45 µM (inactive) | – | 47.2 µM (inactive) | > 100 µM (inactive) |
| COc1ccc2nc3cc([N+](=O)[O-])ccc3c(Nc3ccc(S(=O)(=O)N=C(N)N)cc3)c2c1 | 11 µM (inactive) | 23.1 µM (inactive) | 28.8 µM (inactive) | 15.2 µM (inactive) | 11.9 µM (inactive) | 27.2 µM (inactive) | – | 15.5 µM (inactive) | 28.4 µM (inactive) | 30.5 µM (inactive) | 20.4 µM (inactive) | 16.5 µM (inactive) | 15.7 µM (inactive) | 58.5 µM (inactive) | 9.91 µM (inactive) | 14.6 µM (inactive) | 30.5 µM (inactive) | > 100 µM (inactive) |
| CCOC(=O)CCC(NC(=O)c1ccc(CNc2nc3cc(N)cc(N)c3nc2-c2ccccc2)cc1)C(=O)OCC (centres undefined) | – | 27.5 µM (inactive) | > 89.3 µM (inactive) | > 100 µM (inactive) | 10.7 µM (inactive) | > 100 µM (inactive) | > 87.1 µM (inactive) | > 85.7 µM (inactive) | 99.3 µM (inactive) | 28.4 µM (inactive) | > 100 µM (inactive) | 27 µM (inactive) | > 83 µM (inactive) | > 100 µM (inactive) | 20.7 µM (inactive) | > 86.3 µM (inactive) | > 100 µM (inactive) | 28.2 µM (inactive) |
| COc1cc(C=O)cc(/C=N/N=C/c2ccccc2O)c1O | 8.85 µM (inactive) | 30.5 µM (inactive) | 66.4 µM (inactive) | – | < 0.01 µM (active) | 30.7 µM (inactive) | 40.1 µM (inactive) | 76.9 µM (inactive) | 21.7 µM (inactive) | 15.6 µM (inactive) | 16.6 µM (inactive) | 25.5 µM (inactive) | 29.1 µM (inactive) | 12.7 µM (inactive) | 4.71 µM (inactive) | 28.4 µM (inactive) | 24.6 µM (inactive) | 14.7 µM (inactive) |
| Cn1ncc2c(NCc3ccccc3)ncnc21 | > 100 µM (inactive) | > 100 µM (inactive) | > 100 µM (inactive) | > 100 µM (inactive) | > 100 µM (inactive) | > 100 µM (inactive) | > 100 µM (inactive) | > 100 µM (inactive) | > 100 µM (inactive) | – | > 100 µM (inactive) | > 100 µM (inactive) | > 100 µM (inactive) | > 100 µM (inactive) | > 100 µM (inactive) | > 100 µM (inactive) | > 100 µM (inactive) | > 100 µM (inactive) |
| CC(=O)OCC1OC(n2c(-c3ccccc3)c(C(C)=O)c(-c3ccc(Cl)cc3)c(C#N)c2=S)C(OC(C)=O)C(OC(C)=O)C1OC(C)=O (centres undefined) | 29.9 µM (inactive) | > 100 µM (inactive) | > 100 µM (inactive) | > 100 µM (inactive) | > 100 µM (inactive) | > 100 µM (inactive) | > 100 µM (inactive) | > 100 µM (inactive) | > 100 µM (inactive) | > 100 µM (inactive) | > 100 µM (inactive) | > 100 µM (inactive) | 21.2 µM (inactive) | > 100 µM (inactive) | > 100 µM (inactive) | > 100 µM (inactive) | – | > 100 µM (inactive) |
| O=C(Cn1c(C(=O)/C=C/c2ccco2)nc2ccccc21)c1ccc(Cl)cc1 | 3.58 µM (inactive) | 19.4 µM (inactive) | 36.1 µM (inactive) | – | 15.5 µM (inactive) | 46.8 µM (inactive) | 15.1 µM (inactive) | 14.9 µM (inactive) | 13.8 µM (inactive) | 19.9 µM (inactive) | 52.7 µM (inactive) | 31.5 µM (inactive) | 19.9 µM (inactive) | 44.4 µM (inactive) | 31.6 µM (inactive) | 22.8 µM (inactive) | 23.2 µM (inactive) | 26.6 µM (inactive) |

From ChEMBL document CHEMBL1201862, “PubChem BioAssay data set” (2004)
